In PubChem BioAssay AID2060504 (Molecular Pharmacology Branch, DTP, NCI, 2025):
Values joined by “and” are separate entries in the source; they are usually repeats but may differ in a detail not shown here. Equal values may be shown once.

System: 636577-100-R-J1-PDC complex spheroid viability
Assay: Anticancer human tumor 636577-100-R-J1-PDC patient-derived endometrial adenocarcinoma cell line growth inhibition [GQUAD]
Conditions: for viability, T/C: stronger effect = lower value
Description: DNA G-quadruplex Stabilizer Agents in Combinations in Complex Spheroids
A high-throughput screen of multi-cell type tumor spheroids was designed to identify active combinations of DNA G-quadruplex stabilizer agents and targeted small molecules. Complex spheroids include a stromal component modeled by human endothelial cells (HUVEC) and fibroblasts modeled by human mesenchymal stem cells (MSCs). The concentration ranges selected for each drug and investigational agent were based upon clinically achievable concentrations if the clinical Cmax of the agent was known.
Compounds. The drugs and investigational agents: pidnarulex (CX-5461; NSC782164), APTO-253 (NSC789042), BRACO-19 (NSC847499), peposertib (NSC802822), ceralasertib (NSC780249), elimusertib (NSC800525), camonsertib (NSC841442), AZD-1390 (NSC803789), olaparib (NSC753686), talazoparib (NSC767125), ART-558 (NSC835418), sotorasib (NSC818433), MRTX-1133 (NSC836407), SN-38 (NSC673596), topotecan (NSC609699), etoposide (NSC141540), doxorubicin (NSC123127), gemcitabine (NSC613327), 5-fluorouracil (NSC19893), paclitaxel (NSC125973), vemurafenib (NSC761431), panobinostat (NSC761190), R-306465 (JNJ-16241199; NSC773264), adavosertib (NSC754352), TP-3654 (NSC805149), carboplatin (NSC241240), KSQ-4279 (NSC840948), and staurosporine (NSC755774) were obtained from the National Cancer Institute (NCI) Developmental Therapeutics Program Chemical Repository (34). The FDA-approved anticancer drug set is available from the NCI Developmental Therapeutics Program. […] The stock solutions were prepared in dimethyl sulfoxide (DMSO, Sigma-Aldrich, St. Louis, MO, cat. D2650) at 800-fold the tested concentration and stored at -70 degrees C prior to their use. All drugs and investigational agents were tested over a range starting from a high concentration at or near the clinical Cmax and decreasing in half-log increments. If the clinical Cmax for an agent had not been determined, the highest concentration tested was 10 microM.
2.3 Cell Culture. All cells were maintained in an incubator at 37 degrees C and 5% CO2 with 95% humidity. The PDC lines were cultured according to standard operating procedures established by the NCI PDMR. All PDCs were thawed and cultured in Matrigel-coated flasks prepared with a working solution of 1X Ham's F-12 nutrient mix, without supplementation (Invitrogen, cat. 11765054), 100 U/mL penicillin-streptomycin (Invitrogen, cat. 15140122), and 2.5% Matrigel (Corning Inc., cat. 354248) for the first three passages. The 857933-349-R-J2-PDC line was cultured in 6C/Colon 1B media, which includes advanced DMEM/F-12 (Thermo Fisher Scientific, cat. 12634028), 10 mM HEPES (Thermo Fisher Scientific, cat. 15630080), 1X GlutaMAX supplement (Thermo Fisher Scientific, cat. 35050061), 0.1 mg/mL primocin (InvivoGen, cat. ant-pm-2), 10% defined fetal bovine serum, heat inactivated (HyClone Laboratories Inc., cat. SH30070.03HI), 50% L-WRN conditioned media (ATCC, cat. CRL-3276), 1.25 mM N-Acetyl-L-cysteine (Sigma-Aldrich, cat. A9165), 10 mM nicotinamide (Sigma-Aldrich, cat. N0636), 1X B-27 supplement (Thermo Fisher Scientific, cat. 17504044), 1X N-2 supplement (Thermo Fisher Scientific, cat. 17502048), 10 microM Y-27632 dihydrochloride (Tocris Bioscience, cat. 1254), and 50 ng/mL human EGF recombinant protein (Thermo Fisher Scientific, cat. PHG0311). The 485176-168-R4-J1-PDC line was cultured in Panc media, which includes all 6C/Colon 1B media components plus 100 ng/mL human FGF-10 (Thermo Fisher Scientific, cat. 100-26), 500 nM SB-431542 (Selleckchem, cat. S1067), and gastrin (Tocris, cat. 3006).
[…]
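Also: viability read after seven days of drug exposure.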
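For viability, T/C in this document: luminescence signal used as a proxy for viable cells; 100% = DMSO vehicle control wells.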

Question: With Cc1cccc(N(C)C(=O)C2C(O)CCN2c2nc(C)cc(C(F)(F)F)c2C#N)c1 (stereo not given) as the compound, how does the viability, T/C (compound 0.0316 µM) read?
Answer: 55.9% and 99.9% and 91.4%

Question: And the viability, T/C (compound 0.1 µM)?
Answer: 87% and 96.7% and 33.3%

Question: What about the viability, T/C (compound 0.316 µM) of the same compound?
Answer: 95.6% and 94.5% and 96%

Question: What about the viability, T/C (compound 1 µM) of the same compound?
Answer: 75.2% and 81.8% and 94.4%

Question: And the viability, T/C (compound 3.16 µM)?
Answer: 76% and 84.7% and 55.7%

Question: What about the viability, T/C (compound 10 µM) of the same compound?
Answer: 74.4% and 87.5% and 49.5%

Question: And the IC50 (curve of compound)?
Answer: > 10000 nM and 9350 nM

Question: What does the source list for CC(=O)O[C@H]1C(=O)[C@@]2(C)[C@H]([C@H](OC(=O)c3ccccc3)[C@]3(O)C[C@H](OC(=O)[C@H](O)[C@@H](NC(=O)c4ccccc4)c4ccccc4)C(C)=C1C3(C)C)[C@]1(OC(C)=O)CO[C@@H]1C[C@@H]2O?
Answer: viability, T/C (compound 0.0316 µM): 17.6% and 17.3% and 20.3%; viability, T/C (compound 0.1 µM): 14% and 14.4% and 13.2%; viability, T/C (compound 0.316 µM): 12.3% and 12.7% and 10.3%; viability, T/C (compound 1 µM): 12.2% and 12% and 10%; viability, T/C (compound 3.16 µM): 9.72% and 10.1% and 7.81%; viability, T/C (compound 10 µM): 9.54% and 9.71% and 8.27%; IC50 (curve of compound): < 31.6 nM

Question: What does the source list for Cc1[nH]c2ccc(F)cc2c1-c1nc2c3cccnc3c3ncccc3c2[nH]1?
Answer: viability, T/C (compound 1 µM): 86.1% [middle of 9 runs]; viability, T/C (compound 3.16 µM): 38.6% [middle of 9 runs]; IC50 (compound alone, run of 03/18/2024): > 10000 nM and 3070 nM and 3210 nM; IC50 (compound alone, run of 03/26/2024): 2.16 µM [middle of 4 runs]

Question: Which results are given for C=CCn1c(=O)c2cnc(Nc3ccc(N4CCN(C)CC4)cc3)nc2n1-c1cccc(C(C)(C)O)n1 + Cc1[nH]c2ccc(F)cc2c1-c1nc2c3cccnc3c3ncccc3c2[nH]1?
Answer: IC50 (curve of first compound, second compound 0.0316 µM): 825 nM; IC50 (curve of first compound, second compound 0.1 µM): 746 nM; IC50 (curve of first compound, second compound 0.316 µM): 580 nM; IC50 (curve of first compound, second compound 1 µM): 202 nM; IC50 (curve of first compound, second compound 3.16 µM): < 31.6 nM; IC50 (curve of first compound, second compound 10 µM): < 31.6 nM; viability, T/C (second compound 0.0316 µM, first compound 0.0316 µM): 113%; viability, T/C (second compound 0.0316 µM, first compound 0.1 µM): 83.9%; viability, T/C (second compound 0.0316 µM, first compound 0.316 µM): 94%; viability, T/C (second compound 0.0316 µM, first compound 1 µM): 41%; viability, T/C (second compound 0.0316 µM, first compound 3.16 µM): 16.9%; viability, T/C (second compound 0.0316 µM, first compound 10 µM): 12.4%; viability, T/C (second compound 0.1 µM, first compound 0.0316 µM): 103%; viability, T/C (second compound 0.1 µM, first compound 0.1 µM): 78%; viability, T/C (second compound 0.1 µM, first compound 0.316 µM): 78.4%; viability, T/C (second compound 0.1 µM, first compound 1 µM): 40.6%; viability, T/C (second compound 0.1 µM, first compound 3.16 µM): 19.6%; viability, T/C (second compound 0.1 µM, first compound 10 µM): 12.5%; viability, T/C (second compound 0.316 µM, first compound 0.0316 µM): 83%; viability, T/C (second compound 0.316 µM, first compound 0.1 µM): 78.5%; viability, T/C (second compound 0.316 µM, first compound 0.316 µM): 65%; viability, T/C (second compound 0.316 µM, first compound 1 µM): 36.9%; viability, T/C (second compound 0.316 µM, first compound 3.16 µM): 17.4%; viability, T/C (second compound 0.316 µM, first compound 10 µM): 14%; viability, T/C (second compound 1 µM, first compound 0.0316 µM): 83.9%; viability, T/C (second compound 1 µM, first compound 0.1 µM): 45.3%; viability, T/C (second compound 1 µM, first compound 0.316 µM): 58.1%; viability, T/C (second compound 1 µM, first compound 1 µM): 29.8%; viability, T/C (second compound 1 µM, first compound 3.16 µM): 16.1%; viability, T/C (second compound 1 µM, first compound 10 µM): 13.6%; viability, T/C (second compound 3.16 µM, first compound 0.0316 µM): 25.6%; viability, T/C (second compound 3.16 µM, first compound 0.1 µM): 21.4%; viability, T/C (second compound 3.16 µM, first compound 0.316 µM): 23.6%; viability, T/C (second compound 3.16 µM, first compound 1 µM): 19.1%; viability, T/C (second compound 3.16 µM, first compound 3.16 µM): 17.5%; viability, T/C (second compound 3.16 µM, first compound 10 µM): 16.6%; viability, T/C (second compound 10 µM, first compound 0.0316 µM): 35%; viability, T/C (second compound 10 µM, first compound 0.1 µM): 28.6%; viability, T/C (second compound 10 µM, first compound 0.316 µM): 29.3%; viability, T/C (second compound 10 µM, first compound 1 µM): 20.1%; viability, T/C (second compound 10 µM, first compound 3.16 µM): 20.9%; viability, T/C (second compound 10 µM, first compound 10 µM): 14.5%
